Reference: PMC8151276, “An Integrated Approach toward NanoBRET Tracers for Analysis of GPCR Ligand Engagement” (Molecules, 2021)

Columns and labels:
Assay type in all cases: binding
FZD4 = target: T1, FZD4 (Homo sapiens, UniProt Q9ULV1); experiment: NanoBRET screen HiBiT-FZD4 in HEK293
T1 construct: purchased Promega (in-house HiBiT-GPCR construct library, NanoBRET)
T1 sequence (Q9ULV1 37-537): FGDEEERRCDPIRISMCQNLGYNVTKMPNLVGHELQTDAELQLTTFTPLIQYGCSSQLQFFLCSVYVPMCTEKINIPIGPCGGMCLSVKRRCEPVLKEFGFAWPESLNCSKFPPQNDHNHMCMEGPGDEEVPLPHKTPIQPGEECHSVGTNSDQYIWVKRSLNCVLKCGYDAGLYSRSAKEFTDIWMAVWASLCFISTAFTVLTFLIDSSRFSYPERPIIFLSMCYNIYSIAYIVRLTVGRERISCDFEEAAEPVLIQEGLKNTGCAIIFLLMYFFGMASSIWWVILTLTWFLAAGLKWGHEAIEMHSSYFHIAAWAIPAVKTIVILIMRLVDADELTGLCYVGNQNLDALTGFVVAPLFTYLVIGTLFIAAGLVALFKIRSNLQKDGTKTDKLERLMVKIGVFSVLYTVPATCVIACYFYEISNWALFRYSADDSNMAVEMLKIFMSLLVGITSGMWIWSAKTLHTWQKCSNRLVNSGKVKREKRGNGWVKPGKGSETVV
Protocol: (§1) Each tracer candidate was screened across the entire library of HiBiT-GPCR constructs using NanoBRET as the detection modality. As depicted in Figure 4A, the specificity of interactions was evaluated through decrease in BRET due to competitive displacement of a bound tracer by excess parental compound. Each tracer was analyzed for binding to each HiBiT-GPCR fusion in the absence and in the presence of competing parental compound. Briefly, HEK293 cells were transfected with HiBiT-GPCR constructs diluted into promoterless DNA to reduce expression and maximize translocation to the cell surface. Each tracer candidate was then screened at concentrations of 1 μM and 0.1 μM across cells expressing these fusions. Cells were treated for 1.5 h with tracer either alone or in the presence of 20 μM competing parental compound (i.e., control). BRET was measured upon addition of purified LgBiT and subsequent complementation with HiBiT genetically fused to a GPCR. The specificity of interactions was assessed through a decrease in BRET signal due to competitive displacement of the bound tracer. To further gauge the robustness of these interactions, the fold response over the control (i.e., BRETtracer/BRETcontrol) was calculated. We chose a 1.5-fold response, which translates to ≥7-fold signal over noise as the minimal threshold required to score an interaction as positive. […]. Below we highlight the screening results obtained for our exemplary fluorescent tracers based on Clozapine, Amitriptyline and AZD1283.
(§2) HiBiT-GPCR DNA constructs were diluted in 10 mM Tris pH 8 to a final concentration of 0.01 μg/μL, arrayed in 96-well plates and stored at −20 °C. For transfection, HEK293 cells were suspended in Opti-MEM (without phenol red) supplemented with 2% fetal bovine serum (Seradigm) and 100 units/mL penicillin–streptomycin (Gibco) at a final concentration of 220,000 cells/mL and dispensed into white 96-well plates at 90 μL/well. Subsequent transfections and screens were carried using an Agilent Bravo Automated Liquid Handling Platform. First, the 96-well HiBiT DNA arrays were diluted 25-fold in Opti-MEM (without serum or phenol red) to a final concentration of 0.0004 μg/μL and 20 μL of the diluted DNAs were transferred into new 96-well plates. Next, promoterless carrier DNA (1 μg/μL) was diluted 25-fold (0.04 μg/μL) and then dispensed into the diluted arrays at 20 μL/well. Following brief mixing, Viafect transfection reagent (Promega) diluted 16-fold into Opti-MEM was dispensed into the plates at 40 μL/well. After mixing by pipetting, plates were incubated for 10 min on the pipetting station deck. The DNA-transfection reagent complexes were then added to plates containing cells. To facilitate the screen, 10 μL of DNA-transfection reagent complexes were added in duplicates to the top 4 and bottom 4 rows, resulting in two identical 48-well arrays per plate. Plates with transfected cells were incubated for 18–20 h at 37 °C/5% CO2. A screen of each tracer across the entire library using two different concentrations requires duplicate plates of transfected cells. Depending on the number of tracers being screened, transfections can be scaled up using the same ratios. The next day, for each tracer, four 20× screening solutions in tracer dilution buffer (Promega) were prepared: two duplicates at final concentration of 20 μM and two duplicates at a final concentration of 2 μM. A competing unmodified compound was added to one of each duplicate at a final concentration of 400 μM. The four resulting solutions were diluted 4-fold in Opti-MEM without serum or phenol red to generate 5× solutions (5 µM and 0.5 µM tracer +/− 100 μM competing compound). To screen the library, a BioTek MultiFlo FX liquid dispenser was used to dispense 22.5 µL of tracer solution to the top 4 rows and 22.5 µL tracer + competing compound solution to the 4 bottom rows. Plates were briefly mixed on an orbital shaker and incubated for 1.5 h at room temperature. […]

SMO = target: T2, SMO (Homo sapiens, UniProt Q99835); experiment: NanoBRET screen HiBiT-SMO in HEK293
T2 construct: purchased Promega (in-house HiBiT-GPCR construct library, NanoBRET)
Protocol: as §1, §2

C5AR1 = target: T3, C5AR1 (Homo sapiens, UniProt P21730); experiment: NanoBRET screen HiBiT-C5AR1 in HEK293
T3 construct: purchased Promega (in-house HiBiT-GPCR construct library, NanoBRET)
T3 sequence (P21730 1-350): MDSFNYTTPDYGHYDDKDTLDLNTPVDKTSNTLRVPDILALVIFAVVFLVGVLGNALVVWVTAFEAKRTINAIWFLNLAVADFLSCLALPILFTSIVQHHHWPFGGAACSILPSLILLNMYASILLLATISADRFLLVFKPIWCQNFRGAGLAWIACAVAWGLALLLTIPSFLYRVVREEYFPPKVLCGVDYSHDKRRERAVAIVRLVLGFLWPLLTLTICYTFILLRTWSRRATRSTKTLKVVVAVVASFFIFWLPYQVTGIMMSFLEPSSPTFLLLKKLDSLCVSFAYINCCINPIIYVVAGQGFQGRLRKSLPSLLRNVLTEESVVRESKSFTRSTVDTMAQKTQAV
Protocol: as §1, §2

MTNR1B = target: T4, MTNR1B (Homo sapiens, UniProt P49286); experiment: NanoBRET screen HiBiT-MTNR1B in HEK293
T4 construct: purchased Promega (in-house HiBiT-GPCR construct library, NanoBRET)
T4 sequence (P49286 1-362): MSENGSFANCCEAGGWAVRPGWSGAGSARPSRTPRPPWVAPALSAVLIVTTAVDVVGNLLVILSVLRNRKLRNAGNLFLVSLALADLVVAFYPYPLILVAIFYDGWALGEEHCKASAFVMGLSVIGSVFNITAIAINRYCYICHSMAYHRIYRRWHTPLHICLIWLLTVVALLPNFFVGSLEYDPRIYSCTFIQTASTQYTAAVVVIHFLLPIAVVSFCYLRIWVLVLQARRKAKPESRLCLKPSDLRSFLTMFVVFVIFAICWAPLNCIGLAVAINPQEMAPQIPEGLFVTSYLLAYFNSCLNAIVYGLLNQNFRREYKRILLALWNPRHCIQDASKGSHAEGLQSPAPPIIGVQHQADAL
Protocol: as §1, §2

T2 sequence (Q99835 28-787): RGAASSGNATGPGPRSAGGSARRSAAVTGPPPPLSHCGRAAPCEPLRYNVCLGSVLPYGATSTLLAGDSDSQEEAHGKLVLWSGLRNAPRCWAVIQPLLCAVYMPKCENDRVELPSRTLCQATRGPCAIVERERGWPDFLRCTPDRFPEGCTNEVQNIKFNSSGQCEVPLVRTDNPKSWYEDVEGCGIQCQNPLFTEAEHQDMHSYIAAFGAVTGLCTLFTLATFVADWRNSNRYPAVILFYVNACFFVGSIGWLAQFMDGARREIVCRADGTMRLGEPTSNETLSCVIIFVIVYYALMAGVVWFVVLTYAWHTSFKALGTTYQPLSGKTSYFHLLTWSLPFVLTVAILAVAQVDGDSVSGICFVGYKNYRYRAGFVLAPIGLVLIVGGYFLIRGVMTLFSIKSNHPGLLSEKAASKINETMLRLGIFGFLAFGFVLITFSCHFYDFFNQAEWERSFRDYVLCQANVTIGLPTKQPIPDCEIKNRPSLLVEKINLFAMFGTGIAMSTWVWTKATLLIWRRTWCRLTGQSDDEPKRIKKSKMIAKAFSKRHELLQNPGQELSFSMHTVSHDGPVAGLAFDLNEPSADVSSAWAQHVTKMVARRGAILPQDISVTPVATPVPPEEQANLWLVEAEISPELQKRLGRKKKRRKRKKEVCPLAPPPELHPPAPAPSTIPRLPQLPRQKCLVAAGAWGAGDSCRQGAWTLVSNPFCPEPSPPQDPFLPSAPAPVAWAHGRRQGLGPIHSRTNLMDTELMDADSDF

| Compound | NanoBRET Fold Response (FZD4; FZD4, 0.1μM tracer) | NanoBRET Fold Response (FZD4; FZD4, 1μM tracer) | NanoBRET Fold Response (SMO; SMO, 0.1μM tracer) | NanoBRET Fold Response (SMO; SMO, 1μM tracer) | NanoBRET Fold Response (C5AR1; C5AR1, 0.1μM tracer) | NanoBRET Fold Response (C5AR1; C5AR1, 1μM tracer) | NanoBRET Fold Response (MTNR1B; MTNR1B, 0.1μM tracer) | NanoBRET Fold Response (MTNR1B; MTNR1B, 1μM tracer) | NanoBRET Fold Response (FZD4; FZD4, tracer 0.1μM) | NanoBRET Fold Response (FZD4; FZD4, tracer 1μM) | NanoBRET Fold Response (SMO; SMO, tracer 0.1μM) | NanoBRET Fold Response (SMO; SMO, tracer 1μM) | NanoBRET Fold Response (C5AR1; C5AR1, tracer 0.1μM) | NanoBRET Fold Response (C5AR1; C5AR1, tracer 1μM) | NanoBRET Fold Response (MTNR1B; MTNR1B, tracer 0.1μM) | NanoBRET Fold Response (MTNR1B; MTNR1B, tracer 1μM) | other results |
| --- | --- | --- | --- | --- | --- | --- | --- | --- | --- | --- | --- | --- | --- | --- | --- | --- | --- |
| CN1CCN(C2=Nc3cc(Cl)ccc3N(CC(=O)NCCOCCOCCOCCOCCNC(=O)CCc3ccc4n3[B-](F)(F)[N+]3=C(c5ccc[nH]5)C=CC3=C4)c3ccccc32)CC1 [Clozapine-c-2-NB590] | 1.02 | 0.93 | 0.97 | 1.09 | 1.00 | 1.05 | 0.98 | 1.02 |  |  |  |  |  |  |  |  |  |
| COc1ccc2[nH]c(-c3ccc(CNC(=O)CCOCCOCCOCCOCCNC(=O)CCc4ccc5n4[B-](F)(F)[N+]4=C(c6ccc[nH]6)C=CC4=C5)cc3)c(CCNC(C)=O)c2n1 [AzomelatoninICO9-2-NB590] |  |  |  |  |  |  |  |  |  |  |  |  |  |  |  |  | NanoBRET Fold Response (FZD4; 0.1μM tracer): 0.89; NanoBRET Fold Response (FZD4; 1μM tracer): 1.08; NanoBRET Fold Response (SMO; 0.1μM tracer): 0.86; NanoBRET Fold Response (SMO; 1μM tracer): 1.25; NanoBRET Fold Response (C5AR1; 0.1μM tracer): 0.99; NanoBRET Fold Response (C5AR1; 1μM tracer): 0.98; NanoBRET Fold Response (MTNR1B; 0.1μM tracer): 2.05; NanoBRET Fold Response (MTNR1B; 1μM tracer): 2.32 |
| O=C(CCOCCOCCOCCOCCNC(=O)CCc1ccc2n1[B-](F)(F)[N+]1=C(c3ccc[nH]3)C=CC1=C2)NCCCN1CCN(C2=Nc3cc(Cl)ccc3Nc3ccccc32)CC1 [Clozapine-a-2-NB590] | 1.20 | 0.95 | 1.00 | 0.64 | 1.04 | 1.11 | 1.06 | 0.97 |  |  |  |  |  |  |  |  |  |
| CCCn1c(=O)c2[nH]c(-c3ccc(OCC(=O)NCCNC(=O)CCOCCNC(=O)c4ccc(CNC(=O)CCc5ccc6n5[B-](F)(F)[N+]5=C(c7ccc[nH]7)C=CC5=C6)cc4)cc3)nc2n(CCC)c1=O [XAC-3-NB590] |  |  |  |  |  |  |  |  | 1.15 | 1.12 | 1.01 | 1.05 | 0.95 | 1.04 | 1.07 | 1.05 |  |
| O=C(CCc1ccc2n1[B-](F)(F)[N+]1=C(c3ccc[nH]3)C=CC1=C2)NCc1ccc(C(=O)NCCOCCOCCNCC(O)COc2cccc3ccccc23)cc1 (centres unmarked) [Propranolol-3-NB590] |  |  |  |  |  |  |  |  |  |  |  |  |  |  |  |  | NanoBRET Fold Response (FZD4; FZD4, 0.1μM): 1.09; NanoBRET Fold Response (FZD4; FZD4, 1μM): 1.07; NanoBRET Fold Response (SMO; SMO, 0.1μM): 1.16; NanoBRET Fold Response (SMO; SMO, 1μM): 1.07; NanoBRET Fold Response (C5AR1; C5AR1, 0.1μM): 1.05; NanoBRET Fold Response (C5AR1; C5AR1, 1μM): 1.03; NanoBRET Fold Response (MTNR1B; MTNR1B, 0.1μM): 0.96; NanoBRET Fold Response (MTNR1B; MTNR1B, 1μM): 0.98 |
| O=C(CCc1ccc2n1[B-](F)(F)[N+]1=C(c3ccc[nH]3)C=CC1=C2)NCc1ccc(C(=O)NCCOCCC(=O)N[C@@H]2CC[C@@]3(O)[C@H]4Cc5ccc(O)c6c5[C@@]3(CCN4CC3CC3)[C@H]2O6)cc1 [Naltrexone-3-NB590] |  |  |  |  |  |  |  |  | 0.89 | 1.14 | 0.58 | 0.55 | 0.94 | 0.93 | 0.94 | 0.66 |  |
| N#CN=C(NCCCOc1cccc(CN2CCCCC2)c1)NCCNC(=O)CCOCCOCCOCCOCCNC(=O)CCc1ccc2n1[B-](F)(F)[N+]1=C(c3ccc[nH]3)C=CC1=C2 [Aminopotentidine-2-NB590] |  |  |  |  |  |  |  |  | 0.98 | 1.07 | 1.03 | 0.91 | 0.99 | 0.98 | 0.99 | 0.99 |  |
| COc1ccc2c(n1)c(CCNC(C)=O)cn2CCNC(=O)CCc1ccc2n1[B-](F)(F)[N+]1=C(c3ccc[nH]3)C=CC1=C2 [Azamelatonin-1-NB590] |  |  |  |  |  |  |  |  |  |  |  |  |  |  |  |  | NanoBRET Fold Response (FZD4; 0.1μM tracer): 0.91; NanoBRET Fold Response (FZD4; 1μM tracer): 0.91; NanoBRET Fold Response (SMO; 0.1μM tracer): 0.82; NanoBRET Fold Response (SMO; 1μM tracer): 1.37; NanoBRET Fold Response (C5AR1; 0.1μM tracer): 0.90; NanoBRET Fold Response (C5AR1; 1μM tracer): 0.94; NanoBRET Fold Response (MTNR1B; 0.1μM tracer): 1.07; NanoBRET Fold Response (MTNR1B; 1μM tracer): 1.12 |
| CC(C)N(CC[C@H](c1ccccc1)c1cc(CCNC(=O)c2ccc(CNC(=O)CCc3ccc4n3[B-](F)(F)[N+]3=C(c5ccc[nH]5)C=CC3=C4)cc2)ccc1O)C(C)C [Tolterodine-BZ-NB590] |  |  |  |  |  |  |  |  | 0.93 | 1.07 | 0.93 | 0.94 | 1.01 | 1.11 | 0.97 | 1.04 |  |
| CN1CCN(C2=Nc3cc(Cl)ccc3Nc3ccc(CNC(=O)CCOCCOCCOCCOCCNC(=O)CCc4ccc5n4[B-](F)(F)[N+]4=C(c6ccc[nH]6)C=CC4=C5)cc32)CC1 [Clozapine-b-2-NB590] | 0.99 | 1.03 | 1.13 | 0.80 | 0.98 | 1.02 | 0.95 | 1.05 |  |  |  |  |  |  |  |  |  |
